Test [1] has as its target T1, PLCγ1^wt (Homo sapiens, UniProt P19174, I813T).
T1 construct: specific activities of PLCγ1^wt and PLCγ2^wt full-length proteins; made in house; host or cells: Escherichia coli T7 Express lysY/Iq
T1 sequence (P19174 1-1291 isoform P19174-2 I813T): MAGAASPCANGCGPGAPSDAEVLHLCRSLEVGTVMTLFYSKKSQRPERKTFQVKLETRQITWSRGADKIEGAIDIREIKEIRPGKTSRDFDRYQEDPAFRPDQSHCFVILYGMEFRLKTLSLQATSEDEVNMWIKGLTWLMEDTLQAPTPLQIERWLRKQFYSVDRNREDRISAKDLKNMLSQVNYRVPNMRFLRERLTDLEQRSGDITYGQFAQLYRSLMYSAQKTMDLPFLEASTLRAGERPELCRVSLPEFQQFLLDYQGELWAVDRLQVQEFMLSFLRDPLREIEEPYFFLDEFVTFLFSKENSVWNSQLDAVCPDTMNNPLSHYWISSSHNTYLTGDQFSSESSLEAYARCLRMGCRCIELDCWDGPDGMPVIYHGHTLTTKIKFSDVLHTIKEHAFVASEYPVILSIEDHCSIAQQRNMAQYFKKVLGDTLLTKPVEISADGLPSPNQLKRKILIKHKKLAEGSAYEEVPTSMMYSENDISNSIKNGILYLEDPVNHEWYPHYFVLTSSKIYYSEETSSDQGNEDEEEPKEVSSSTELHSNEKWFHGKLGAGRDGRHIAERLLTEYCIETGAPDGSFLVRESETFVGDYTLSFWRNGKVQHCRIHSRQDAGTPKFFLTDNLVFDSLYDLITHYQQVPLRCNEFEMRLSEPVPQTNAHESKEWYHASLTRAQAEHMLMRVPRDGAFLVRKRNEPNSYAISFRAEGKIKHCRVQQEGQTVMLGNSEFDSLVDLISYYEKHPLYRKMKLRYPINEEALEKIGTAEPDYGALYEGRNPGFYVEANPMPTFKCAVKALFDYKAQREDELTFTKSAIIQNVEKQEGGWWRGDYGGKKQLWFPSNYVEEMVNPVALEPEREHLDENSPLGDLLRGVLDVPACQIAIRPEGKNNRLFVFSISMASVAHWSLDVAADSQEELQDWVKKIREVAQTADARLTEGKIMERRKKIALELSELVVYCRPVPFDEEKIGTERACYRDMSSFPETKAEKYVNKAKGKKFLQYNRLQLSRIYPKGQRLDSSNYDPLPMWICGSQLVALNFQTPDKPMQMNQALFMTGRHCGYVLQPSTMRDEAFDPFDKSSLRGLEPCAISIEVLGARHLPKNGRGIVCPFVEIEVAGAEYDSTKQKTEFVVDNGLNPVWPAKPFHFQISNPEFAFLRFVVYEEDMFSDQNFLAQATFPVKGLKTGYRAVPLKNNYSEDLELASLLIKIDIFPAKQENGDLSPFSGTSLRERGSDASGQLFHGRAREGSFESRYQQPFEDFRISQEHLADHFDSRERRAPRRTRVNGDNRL
In words: Assay 1 (A1) with FGFR1 kinase domain (phosphorylation), with or without nickel lipids. Type of test: biochemical. How it is done:
A CLARIOstar plate reader (BMG Labtech) was used to measure the production of the fluorescent product. The excitation and emission wavelengths were 485–15 and 520–20, respectively. Each experiment was performed in at least triplicate; in many cases, nine-fold replicates were generated. The enzyme progress curves were plotted for each concentration of nucleotide using Graphpad Prism software. The initial linear rate of product generation was calculated and converted to a % inhibition when compared with the rate of PLC activity in the absence of nucleotide. These % inhibition values were plotted against the logarithm of the nucleotide concentration in Graphpad Prism and the data fitted with the function (Inhibitor) vs. response–variable slope (four parameters). The resultant fit yielded the IC50 values for the nucleotide inhibition.
The standard XY-69 assay outlined above was followed with the following changes. The PLC activity buffer also contained 10 mM MgCl2. The final concentration of PLCγ1^WT in the assay was 12.5 nM and also contained a 10-fold excess of the FGFR1 kinase domain. The ATP dilution series was first added to the assay plate, followed by the enzyme mix. […] Subsequently, the standard XY-69 liposomes (with or without nickel lipids) were added, and the experiment monitored in the Clariostar as outlined above.

Test [2] has as its target T1, PLCγ1^wt. The test can be described thus: Saturation transfer difference (STD) NMR binding. The following applies: STD amplification factor vs ADP concentration; likely an overestimate; read-out: Kd, STD-NMR, H2 resonance. How it is done:
Protein was buffer exchanged into phosphate buffered saline (pH 7.5) prepared in deuterium oxide. A 10 mM stock of ultrapure ADP was purchased from Promega. NMR spectra were acquired at 293 K in a Bruker Avance Neo 600 MHz spectrometer equipped with QCI-F cryoprobe and operating Topspin 4.2. Saturation transfer difference NMR experiments (stddiffesgp.3) were acquired with 2 s saturation at 0.75 and 50 ppm using 50 ms Gaussian pulses. For the determination of Kd, ADP was added to the protein at ligand excesses from 5- to 100-fold. The protein concentration was 10 µM. STD amplification factors, AF=L0/P0⋅Iref−Isat/Iref , were measured and fitted to a hyperbolic dose-response model to determine the dissociation constant for the protein/ADP interaction.

Another test concerns PLCγ2^wt. The test can be described thus: PLC activity assay 1 (A1), PLCγ2. Type of test: biochemical, human. The following applies: assay using liposomes (A1).

The Kd is a measure of binding affinity in units of concentration.

Method for PLCγ2^wt: The effect of nucleotide inhibition on PLC activity was measured using either a membrane-based assay with the fluorescent substrate (XY-69) incorporated into liposomes or using a small soluble substrate, Aldol 518 myo-inositol-1-phosphate (Aldol). Both methods utilised the same PLC assay buffer [20 mM Hepes-KOH, 70 mM KCl, 3 mM EGTA, 2.97 mM CaCl2, 2 mM TCEP and fatty acid-free bovine serum albumin (FAF-BSA; 50 μg/ml) (pH 7.5)]. Both assays were performed in low volume black 384-well plates (Greiner Bio-One), were composed of a final assay volume of 20 μl and were monitored in a Clariostar plate reader (BMG Labtech). The Aldol assay consisted of 4 μl of a serial dilution of ATP/ADP in assay buffer, 8 μl of PLC protein (concentration varied between PLC variants), and 8 μl of Aldol 518 myo-inositol-1-phosphate (final concentration in assay, 50 μM). […]
The XY-69 assay contained 4 μl of a serial dilution of ATP/ADP in assay buffer, 4 μl of PLC protein (concentration varied between PLC variants), and 12 μl of XY69 liposomes (final concentration in assay 1.2 mg/ml). A CLARIOstar plate reader (BMG Labtech) was used to measure the production of the fluorescent product. […] The initial linear rate of product generation was calculated and converted to a % inhibition when compared with the rate of PLC activity in the absence of nucleotide. […]

`Nc1ncnc2c1ncn2[C@@H]1O[C@H](COP(=O)(O)OP(=O)(O)OP(=O)(O)O)[C@@H](O)[C@H]1O` [ATP]: on PLCγ1^wt [1] (10% Ni-lipids and FGFR1-KD, range of ATP concentrations including physiological levels), the “inhibition with membrane proximity and phospho-PLCγ1 combined” value is “clear reduction in nucleotide inhibition”. In addition, the “PLC activity with increasing ATP in presence of FGFR1 kinase” value on PLCγ1^wt [1] (FGFR1 kinase domain, no Ni-lipids) is recorded as “enhanced PLC activity compared with the control”.
As for `Nc1ncnc2c1ncn2[C@@H]1O[C@H](COP(=O)(O)OP(=O)(O)O)[C@@H](O)[C@H]1O` [ADP], the Kd on PLCγ1^wt [2] is roughly 196 µM. Further, in the test with PLCγ2^wt, the “IC50 of PLCγ2^wt relative to PLCγ1^wt (fold higher)” value was 1.5- to 40 fold.

Source of the values: paper PMC12687421, “Characterisation of an allosteric site in PLCγ enzymes and implications for development of their specific inhibitors” (Biochemical Journal, 2025).
